Measured values reported in US20260132132A1, “3A,4,5,6-TETRAHYDRO-1 H-PYRAZOLO[3,4-C]PYRIDIN-7(7AH)-ONE DERIVATIVES AS FACTOR XIIA INHIBITORS” (KALVISTA PHARMACEUTICALS LIMITED, priority 2022, published 2026).

Assays:
[1] = molecular target: T1, Human Factor XIIa (hFXIIa) (Homo sapiens, UniProt P00748); experiment: Determination of Human Factor XIIa (hFXIIa) inhibition, fluorogenic substrate IC50 assay; format: biochemical; settings: fluorogenic substrate H-DPro-Phe-Arg-AFC at Km, 25° C., read-out: Human FXIIa IC50
T1 construct: purchased Enzyme Research Laboratories
T1 sequence (P00748 373-615 limits assumed): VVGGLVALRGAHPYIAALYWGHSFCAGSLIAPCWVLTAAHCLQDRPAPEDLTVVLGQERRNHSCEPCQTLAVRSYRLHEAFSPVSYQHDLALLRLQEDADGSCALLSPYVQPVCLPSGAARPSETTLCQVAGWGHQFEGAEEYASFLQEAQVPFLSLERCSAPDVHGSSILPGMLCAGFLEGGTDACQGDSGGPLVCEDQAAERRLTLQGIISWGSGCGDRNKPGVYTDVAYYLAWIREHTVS
T1 sequence (P00748 20-372 partner limits assumed): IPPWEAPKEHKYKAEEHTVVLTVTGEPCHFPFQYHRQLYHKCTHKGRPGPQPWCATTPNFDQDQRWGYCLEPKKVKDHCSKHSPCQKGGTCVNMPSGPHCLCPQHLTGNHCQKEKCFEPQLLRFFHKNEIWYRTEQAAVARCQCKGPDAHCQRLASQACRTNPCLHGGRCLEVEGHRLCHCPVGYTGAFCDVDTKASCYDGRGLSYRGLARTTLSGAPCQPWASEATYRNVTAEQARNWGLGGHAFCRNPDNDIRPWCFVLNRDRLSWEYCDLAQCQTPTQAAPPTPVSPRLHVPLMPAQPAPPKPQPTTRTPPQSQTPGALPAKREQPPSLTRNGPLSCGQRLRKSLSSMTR
Method: Determination of Human Factor XIIa (hFXIIa) inhibition
The Km for the cleavage of the substrate by hFXIIa was determined by standard transformation of the Michaelis-Menten equation, with subsequent inhibition assays performed at substrate Km concentration.

FXa = FXa (Homo sapiens, UniProt P00742); experiment: Related protease inhibition: FXa, fluorogenic substrate; format: biochemical; settings: fluorogenic substrate at Km, 25° C.; H1-H3 = % activity at 40 μM
Method: Human serine protease enzyme Plasma Kallikrein, KLK1, FXa, Plasmin, Thrombin and Trypsin were assayed for enzymatic activity using an appropriate fluorogenic substrate at Km concentration, FXIa at fixed substrate concentration of 100 μM and various concentrations of the test compound.

Sequence of FXa (P00742 235-488 limits assumed): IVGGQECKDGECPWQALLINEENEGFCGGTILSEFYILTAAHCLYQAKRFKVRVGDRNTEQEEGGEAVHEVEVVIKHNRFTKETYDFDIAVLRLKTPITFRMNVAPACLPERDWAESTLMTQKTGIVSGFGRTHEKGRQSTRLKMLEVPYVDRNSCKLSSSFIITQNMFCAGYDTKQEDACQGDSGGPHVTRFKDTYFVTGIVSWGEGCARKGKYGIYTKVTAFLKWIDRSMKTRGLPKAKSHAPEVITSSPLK
Sequence of FXa (P00742 41-179 partner limits assumed): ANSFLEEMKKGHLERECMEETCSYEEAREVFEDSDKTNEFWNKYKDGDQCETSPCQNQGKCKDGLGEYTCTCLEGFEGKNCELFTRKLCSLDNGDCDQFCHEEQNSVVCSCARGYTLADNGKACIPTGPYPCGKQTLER

| Compound | IC50 [1] | IC50 (FXa) |
| --- | --- | --- |
| Cc1cc(CNC(=O)c2nn(-c3cccc(Cl)c3)c3c2CCN(c2ccc4c(c2)C(=O)N(CCO)[C@@H](C)CO4)C3=O)n[nH]1 [Example 1380, (S)-1-(3-chlorophenyl)-6-(4-(2-hydroxyethyl)-3-methyl-5-oxo-2,3,4,5-tetrahydrobenzo[f][1,4]oxazepin-7-yl)-N-((5-methyl-1H-pyrazol-3-yl)methyl)-7-oxo-4,5,6,7-tetrahydro-1H-pyrazolo[3,4-c]pyridine-3-carboxamide] | 0.3 to 1 µM | 10 to 40 µM |
| CCNC(=O)c1nn(-c2cccc(Cl)c2)c2c1CCN(c1ccc3c(c1)C(=O)N(CCO)[C@@H](C)CO3)C2=O [Example 1381, (S)-1-(3-chlorophenyl)-N-ethyl-6-(4-(2-hydroxyethyl)-3-methyl-5-oxo-2,3,4,5-tetrahydrobenzo[f][1,4]oxazepin-7-yl)-7-oxo-4,5,6,7-tetrahydro-1H-pyrazolo[3,4-c]pyridine-3-carboxamide] | 1 to 3 µM | > 40 µM |
| Cc1cc(CNC(=O)c2nn(-c3cccc(Cl)c3)c3c2CCN(c2ccc4c(c2)C(=O)N(CC(F)F)CCO4)C3=O)n[nH]1 [Example 1382, 1-(3-chlorophenyl)-6-(4-(2,2-difluoroethyl)-5-oxo-2,3,4,5-tetrahydrobenzo[f][1,4]oxazepin-7-yl)-N-((5-methyl-1H-pyrazol-3-yl)methyl)-7-oxo-4,5,6,7-tetrahydro-1H-pyrazolo[3,4-c]pyridine-3-carboxamide] | 0.01 to 0.1 µM | 3 to 10 µM |
| Cc1cc(CNC(=O)CN2CCOc3ccc(N4CCc5c(C(=O)NCc6cc(C)n(C)n6)nn(-c6cccc(Cl)c6)c5C4=O)cc3C2=O)nn1C [Example 1383, 1-(3-chlorophenyl)-N-((1,5-dimethyl-1H-pyrazol-3-yl)methyl)-6-(4-(2-(((1,5-dimethyl-1H-pyrazol-3-yl)methyl)amino)-2-oxoethyl)-5-oxo-2,3,4,5-tetrahydrobenzo[f][1,4]oxazepin-7-yl)-7-oxo-4,5,6,7-tetrahydro-1H-pyrazolo[3,4-c]pyridine-3-carboxamide] | 0.01 to 0.1 µM | 3 to 10 µM |
| CN1CCc2ccc(N3CCc4c(C(=O)NCCF)nn(-c5cccc(Cl)c5)c4C3=O)cc2C1=O [Example 1384, 1-(3-chlorophenyl)-N-(2-fluoroethyl)-6-(2-methyl-1-oxo-1,2,3,4-tetrahydroisoquinolin-7-yl)-7-oxo-4,5,6,7-tetrahydro-1H-pyrazolo[3,4-c]pyridine-3-carboxamide] | 0.3 to 1 µM | > 40 µM |
| CC(=O)NCc1nn(-c2cccc(Cl)c2)c2c1CCN(c1ccc3c(c1)C(=O)N(C)CC3)C2=O [Example 1385, N-((1-(3-chlorophenyl)-6-(2-methyl-1-oxo-1,2,3,4-tetrahydroisoquinolin-7-yl)-7-oxo-4,5,6,7-tetrahydro-1H-pyrazolo[3,4-c]pyridin-3-yl)methyl)acetamide] | 1 to 3 µM | 3 to 10 µM |
| CN1CCc2ccc(N3CCc4c(C(=O)NCCC(=O)O)nn(-c5cccc(Cl)c5)c4C3=O)cc2C1=O [Example 1386, 3-(1-(3-chlorophenyl)-6-(2-methyl-1-oxo-1,2,3,4-tetrahydroisoquinolin-7-yl)-7-oxo-4,5,6,7-tetrahydro-1H-pyrazolo[3,4-c]pyridine-3-carboxamido)propanoic acid] | 1 to 3 µM | > 40 µM |
| C[C@@H](NC(=O)c1nn(-c2cccc(Cl)c2)c2c1CCN(c1ccc3c(c1)C(=O)N(C)CC3)C2=O)C(=O)O [Example 1387, (1-(3-chlorophenyl)-6-(2-methyl-1-oxo-1,2,3,4-tetrahydroisoquinolin-7-yl)-7-oxo-4,5,6,7-tetrahydro-1H-pyrazolo[3,4-c]pyridine-3-carbonyl)-D-alanine] | 1 to 3 µM | 10 to 40 µM |
| CN1CCc2ccc(N3CCc4c(C#N)nn(-c5cccc(Cl)c5)c4C3=O)cc2C1=O [Example 1388, 1-(3-chlorophenyl)-6-(2-methyl-1-oxo-1,2,3,4-tetrahydroisoquinolin-7-yl)-7-oxo-4,5,6,7-tetrahydro-1H-pyrazolo[3,4-c]pyridine-3-carbonitrile] | 0.3 to 1 µM | 1 to 3 µM |
| CCNC(=O)c1nn(-c2cccc(Cl)c2)c2c1CCN(c1cccc(N3CC4(CC4)CC3=O)c1)C2=O [Example 1389, 1-(3-chlorophenyl)-N-ethyl-7-oxo-6-(3-(6-oxo-5-azaspiro[2.4]heptan-5-yl)phenyl)-4,5,6,7-tetrahydro-1H-pyrazolo[3,4-c]pyridine-3-carboxamide] | 10 to 40 µM | > 40 µM |
| CCNC(=O)c1nn(-c2cccc(Cl)c2)c2c1CCN(c1cccc(N3CCCN(C)C3=O)c1)C2=O [Example 1390, 1-(3-chlorophenyl)-N-ethyl-6-(3-(3-methyl-2-oxotetrahydropyrimidin-1(2H)-yl)phenyl)-7-oxo-4,5,6,7-tetrahydro-1H-pyrazolo[3,4-c]pyridine-3-carboxamide] | 1 to 3 µM | > 40 µM |
| C[C@H](NC(=O)c1nn(-c2cccc(Cl)c2)c2c1CCN(c1ccc3c(c1)C(=O)N(C)CC3)C2=O)C(=O)O [Example 1391, (1-(3-chlorophenyl)-6-(2-methyl-1-oxo-1,2,3,4-tetrahydroisoquinolin-7-yl)-7-oxo-4,5,6,7-tetrahydro-1H-pyrazolo[3,4-c]pyridine-3-carbonyl)-L-alanine] | 0.3 to 1 µM | > 40 µM |
| CCNC(=O)c1nn(-c2cccc(Cl)c2)c2c1CCN(c1ccc3c(c1)C(=O)N(CCO)[C@H](C)CO3)C2=O [Example 1392, (R)-1-(3-chlorophenyl)-N-ethyl-6-(4-(2-hydroxyethyl)-3-methyl-5-oxo-2,3,4,5-tetrahydrobenzo[f][1,4]oxazepin-7-yl)-7-oxo-4,5,6,7-tetrahydro-1H-pyrazolo[3,4-c]pyridine-3-carboxamide] | 3 to 10 µM | > 40 µM |
| Cc1cc(CNC(=O)c2nn(-c3cccc(Cl)c3)c3c2CCN(c2ccc4c(c2)C(=O)N(CC(N)=O)CCO4)C3=O)nn1C [Example 1393, 6-(4-(2-amino-2-oxoethyl)-5-oxo-2,3,4,5-tetrahydrobenzo[f][1,4]oxazepin-7-yl)-1-(3-chlorophenyl)-N-((1,5-dimethyl-1H-pyrazol-3-yl)methyl)-7-oxo-4,5,6,7-tetrahydro-1H-pyrazolo[3,4-c]pyridine-3-carboxamide] | 0.01 to 0.1 µM | 1 to 3 µM |
| Cc1c(Cl)c(CNC(=O)c2nn(-c3cccc(Cl)c3)c3c2CCN(c2ccc4c(c2)C(=O)N(CC(N)=O)CCO4)C3=O)nn1C [Example 1394, 6-(4-(2-amino-2-oxoethyl)-5-oxo-2,3,4,5-tetrahydrobenzo[f][1,4]oxazepin-7-yl)-N-((4-chloro-1,5-dimethyl-1H-pyrazol-3-yl)methyl)-1-(3-chlorophenyl)-7-oxo-4,5,6,7-tetrahydro-1H-pyrazolo[3,4-c]pyridine-3-carboxamide] | 0.01 to 0.1 µM | 0.3 to 1 µM |
| Cc1cc(CNC(=O)c2nn(-c3cccc(Cl)c3)c3c2CCN(c2ccc4c(c2)C(=O)N(C)[C@@H](CO)CO4)C3=O)nn1C [Example 1395, (S)-1-(3-chlorophenyl)-N-((1,5-dimethyl-1H-pyrazol-3-yl)methyl)-6-(3-(hydroxymethyl)-4-methyl-5-oxo-2,3,4,5-tetrahydrobenzo[f][1,4]oxazepin-7-yl)-7-oxo-4,5,6,7-tetrahydro-1H-pyrazolo[3,4-c]pyridine-3-carboxamide] | 1 to 3 µM | > 40 µM |
| Cc1ccncc1CNC(=O)c1nn(-c2cccc(Cl)c2)c2c1CCN(c1ccc3c(c1)C(=O)N(C)[C@@H](CO)CO3)C2=O [Example 1396, (S)-1-(3-chlorophenyl)-6-(3-(hydroxymethyl)-4-methyl-5-oxo-2,3,4,5-tetrahydrobenzo[f][1,4]oxazepin-7-yl)-N-((4-methylpyridin-3-yl)methyl)-7-oxo-4,5,6,7-tetrahydro-1H-pyrazolo[3,4-c]pyridine-3-carboxamide] | 0.3 to 1 µM | > 40 µM |
| CCNC(=O)c1nn(-c2cccc(Cl)c2)c2c1CCN(c1cccc(N3C(=O)CC[C@H]3C)c1)C2=O [Example 1397, (R)-1-(3-chlorophenyl)-N-ethyl-6-(3-(2-methyl-5-oxopyrrolidin-1-yl)phenyl)-7-oxo-4,5,6,7-tetrahydro-1H-pyrazolo[3,4-c]pyridine-3-carboxamide] | 10 to 40 µM | > 40 µM |
| CCNC(=O)c1nn(-c2cccc(Cl)c2)c2c1CCN(c1cccc(N3C(=O)CC[C@@H]3C)c1)C2=O [Example 1398, (S)-1-(3-chlorophenyl)-N-ethyl-6-(3-(2-methyl-5-oxopyrrolidin-1-yl)phenyl)-7-oxo-4,5,6,7-tetrahydro-1H-pyrazolo[3,4-c]pyridine-3-carboxamide] | 10 to 40 µM | > 40 µM |
